Assay results published in patent EP3064205A1, “Therapeutic use of isomeric forms of 2-(4-chlorophenyl)quinolin-4-yl)(piperidin-2-yl)methanol” (Glionova AB, priority 2015, dated 2016).
pIC50: −log10 of the molar value. Read-outs that look alike come from different tables or passages of the source.

What was measured:
Assay in all cases: 3D clonogenic assay (PDX)
Format in all cases: cell-based, human
BXF 1352 = settings: BXF 1352, Bladder; for pIC50: Homo sapiens
Method in brief: (§1)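 Using cells isolated from PDX tumors carried in nude mice, inhibition of colony formation in soft agar was measured after 8–13 days of continuous compound exposure (50–0.0015 µM). IC50 values were derived from sigmoidal 4-parameter fits of the automated counts.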

PAXF 2053 = settings: PAXF 2053, Pancreas; for pIC50: Homo sapiens
Method in brief: as §1

CXF 243 = settings: CXF 243, Colorectal; for pIC50: Homo sapiens
Method in brief: as §1

CXF 1729 = settings: CXF 1729, Colorectal; for pIC50: Homo sapiens
Method in brief: as §1

PAXF 1998 = settings: PAXF 1998, Pancreas; for pIC50: Homo sapiens
Method in brief: as §1

MAXF 713 = settings: MAXF 713, Breast; for pIC50: Homo sapiens
Method in brief: as §1

PAXF 546 = settings: PAXF 546, Pancreas; for pIC50: Homo sapiens, PAXF546
Method in brief: as §1

PRXF MRI-H-1579 = settings: PRXF MRI-H-1579, Prostate; for pIC50: Homo sapiens
Method in brief: as §1

LXFA 983 = settings: LXFA 983, Lung Adeno; for pIC50: Homo sapiens
Method in brief: as §1

PAXF 2005 = settings: PAXF 2005, Pancreas; for pIC50: Homo sapiens
Method in brief: as §1

CXF 647 = settings: CXF 647, Colorectal; for pIC50: Homo sapiens
Method in brief: as §1

SXFS 1937 = settings: SXFS 1937, Sarcoma Soft Tissue; for pIC50: Homo sapiens
Method in brief: as §1

`O[C@H](c1cc(-c2ccc(Cl)cc2)nc2ccccc12)[C@@H]1CCCCN1` [S1, (R)-(2-(4-chlorophenyl)quinolin-4-yl)((S)-piperidin-2-yl)methanol] was tested. Which “b (bottom plateau of concentration-effect curve)” value (BXF 1352) did it give?
Its value is 0.

And the “t (top plateau of concentration-effect curve)” value (BXF 1352)?
The value was 97.

And the pIC50 (BXF 1352; read-out: abs. IC50)?
Its pIC50 is 4.73.

And the pIC50 (BXF 1352; read-out: rel. IC50)?
Its pIC50 is 4.72.

What about the pIC50 (PAXF 2053; read-out: abs. IC50) of the same compound?
Its pIC50 is 5.23.

What about the pIC50 (PAXF 2053; read-out: rel. IC50) of the same compound?
The pIC50 was 5.25.

What about the “b (bottom plateau of concentration-effect curve)” value (PAXF 2053) of the same compound?
The value was 18.

What about the “t (top plateau of concentration-effect curve)” value (PAXF 2053) of the same compound?
Its value is 101.

And the “b (bottom plateau of concentration-effect curve)” value (CXF 243)?
The value was 46.

And the “t (top plateau of concentration-effect curve)” value (CXF 243)?
Its value is 102.

And the pIC50 (CXF 243; read-out: abs. IC50)?
Its pIC50 is 5.04.

What about the pIC50 (CXF 243; read-out: rel. IC50) of the same compound?
Its pIC50 is 5.06.

And the “b (bottom plateau of concentration-effect curve)” value (CXF 1729)?
The value was 8.

What about the “t (top plateau of concentration-effect curve)” value (CXF 1729) of the same compound?
The value was 104.

And the pIC50 (CXF 1729; read-out: abs. IC50)?
Its pIC50 is 5.05.

And the pIC50 (CXF 1729; read-out: rel. IC50)?
Its pIC50 is 5.05.

And the pIC50 (PAXF 1998; read-out: abs. IC50)?
The pIC50 was 5.05.

And the pIC50 (PAXF 1998; read-out: rel. IC50)?
The pIC50 was 5.07.

What about the “b (bottom plateau of concentration-effect curve)” value (PAXF 1998) of the same compound?
The value was 38.

What about the “t (top plateau of concentration-effect curve)” value (PAXF 1998) of the same compound?
The value was 104.

And the pIC50 (MAXF 713; read-out: abs. IC50)?
The pIC50 was 5.04.

And the pIC50 (MAXF 713; read-out: rel. IC50)?
The pIC50 was 5.07.

What about the “b (bottom plateau of concentration-effect curve)” value (MAXF 713) of the same compound?
Its value is 43.

And the “t (top plateau of concentration-effect curve)” value (MAXF 713)?
Its value is 108.

And the pIC50 (PAXF 546; read-out: abs. IC50)?
Its pIC50 is 5.04.

What about the pIC50 (PAXF 546; read-out: rel. IC50) of the same compound?
The pIC50 was 5.04.

What about the “b (bottom plateau of concentration-effect curve)” value (PAXF 546) of the same compound?
Its value is 25.

What about the “t (top plateau of concentration-effect curve)” value (PAXF 546) of the same compound?
The value was 96.

And the pIC50 (PRXF MRI-H-1579; read-out: abs. IC50)?
The pIC50 was 5.05.

And the pIC50 (PRXF MRI-H-1579; read-out: rel. IC50)?
The pIC50 was 5.06.

What about the “b (bottom plateau of concentration-effect curve)” value (PRXF MRI-H-1579) of the same compound?
Its value is 21.

And the “t (top plateau of concentration-effect curve)” value (PRXF MRI-H-1579)?
The value was 112.

And the pIC50 (LXFA 983; read-out: abs. IC50)?
Its pIC50 is 5.32.

What about the pIC50 (LXFA 983; read-out: rel. IC50) of the same compound?
The pIC50 was 5.34.

What about the “b (bottom plateau of concentration-effect curve)” value (LXFA 983) of the same compound?
The value was 30.

What about the “t (top plateau of concentration-effect curve)” value (LXFA 983) of the same compound?
Its value is 96.

What about the pIC50 (PAXF 2005; read-out: abs. IC50) of the same compound?
The pIC50 was 5.04.

And the pIC50 (PAXF 2005; read-out: rel. IC50)?
The pIC50 was 5.04.

And the “b (bottom plateau of concentration-effect curve)” value (PAXF 2005)?
The value was 11.

And the “t (top plateau of concentration-effect curve)” value (PAXF 2005)?
The value was 106.

And the “b (bottom plateau of concentration-effect curve)” value (CXF 647)?
The value was 20.

And the “t (top plateau of concentration-effect curve)” value (CXF 647)?
Its value is 97.

What about the pIC50 (CXF 647; read-out: abs. IC50) of the same compound?
Its pIC50 is 4.62.

And the pIC50 (CXF 647; read-out: rel. IC50)?
Its pIC50 is 4.78.

What about the pIC50 (SXFS 1937; read-out: abs. IC50) of the same compound?
Its pIC50 is 5.00.

And the pIC50 (SXFS 1937; read-out: rel. IC50)?
Its pIC50 is 5.00.

And the “b (bottom plateau of concentration-effect curve)” value (SXFS 1937)?
Its value is 18.

What about the “t (top plateau of concentration-effect curve)” value (SXFS 1937) of the same compound?
Its value is 120.
